Measurements: patent US10927354B2, “D-type amino acid dehydrogenase” (Kureha Corporation, priority 2017, dated 2021)

What was measured:
Format in all cases: biochemical, Numidum massiliense
[1] = system: D-type amino acid dehydrogenase derived from N. massiliense (wild type); assay: D-amino acid synthesis activity, wild type enzyme; conditions: 5 mM 2-oxo acid, 200 mM ammonium chloride, pH 9.5, 50° C.; for D-amino acid synthesis activity (specific activity), Wild type, NADH: 0.1 mM NADH; for D-amino acid synthesis activity (specific activity), Wild type, NADPH: 0.1 mM NADPH
Method: (§1) The activity of the enzyme was measured by determining a decrease in absorbance at wavelength of 340 nm of NADPH or NADH produced by the catalytic reaction of the enzyme. […] The absorbance was measured by an ultraviolet-visible spectrophotometer UV-1800 (available from SHIMADZU).

[2] = system: three-mutation introduced D-type amino acid dehydrogenase (Thr174Ile, Arg184Met, His230Asn); assay: D-amino acid synthesis activity, three-mutation enzyme; conditions: 5 mM 2-oxo acid, 200 mM ammonium chloride, pH 9.5, 50° C.; for D-amino acid synthesis activity (specific activity), Three-mutation enzyme, NADH: 0.1 mM NADH; for D-amino acid synthesis activity (specific activity), Three-mutation enzyme, NADPH: 0.1 mM NADPH
Excerpt: DNA encoding polypeptide in which three types of mutations (Thr174Ile, Arg184Met, and His230Asn) were introduced into the amino acid sequence of D-type amino acid dehydrogenase derived from N. massiliense was obtained by synthesis. This was cleaved with restriction enzymes NdeI and EcoRI, separated by agarose gel electrophoresis, and then extracted and purified from the gel. DNA fragments after a restriction enzyme treatment were incorporated into restriction enzyme sites (NdeI and EcoRI) of pET-21a(+) (available from Novagen) of a plasmid for protein expression by a ligation reaction to construct an expression vector that retains three-mutation introduced D-type amino acid dehydrogenase gene. The expression vector was constructed such that the three-mutation introduced D-type amino acid dehydrogenase gene was incorporated into downstream of the T7 promoter and the […] binding site, and upstream of the T7 terminator.
as §1

[3] = system: five-mutation introduced D-type amino acid dehydrogenase (Met155Leu, Val159Gly, Thr174Ile, Arg184Met, His230Asn); assay: D-amino acid synthesis activity, five-mutation enzyme; conditions: 5 mM 2-oxo acid, 200 mM ammonium chloride, pH 9.5, 50° C.; for D-amino acid synthesis activity (specific activity), Five-mutation enzyme, NADH: 0.1 mM NADH; for D-amino acid synthesis activity (specific activity), Five-mutation enzyme, NADPH: 0.1 mM NADPH
Method: In order to prepare a gene for a mutant enzyme in which five types of mutations (Met155Leu, Val159Gly, Thr174Ile, Arg184Met, and His230Asn) are introduced into the D-type amino acid dehydrogenase derived from N. massiliense, the six mutation-introduced D-type amino acid dehydrogenase/pET-21a(+) prepared above was used as a template to prepare the expression vector by PCR using “PrimeSTAR Max DNA Polymerase” available from Takara Bio Inc. PCR was performed according to the manufacturer's protocol. A PCR reaction solution was prepared by containing 0.3 μM of each of the following primers and 50 ng of templet DNA as described above.
as §1

[4] = system: six-mutation introduced D-type amino acid dehydrogenase (Asp95Ser, Met155Leu, Val159Gly, Thr174Ile, Arg184Met, His230Asn); assay: D-amino acid synthesis activity, six-mutation enzyme; conditions: 5 mM 2-oxo acid, 200 mM ammonium chloride, pH 9.5, 50° C.; for D-amino acid synthesis activity (specific activity), Six-mutation enzyme, NADH: 0.1 mM NADH; for D-amino acid synthesis activity (specific activity), Six-mutation enzyme, NADPH: 0.1 mM NADPH
Method: DNA encoding polypeptide into which six types of mutations (Asp95Ser, Met155Leu, Val159Gly, Thr174Ile, Arg184Met, and His230Asn) were introduced into the amino acid sequence of D-type amino acid dehydrogenase derived from N. massiliense was obtained by synthesis. An expression vector that retains the six-mutation introduced D-type amino acid dehydrogenase gene was further constructed in the same manner as described above.
as §1

Row | SMILES | D-amino acid synthesis activity (specific activity), Wild type, NADH [1] | D-amino acid synthesis activity (specific activity), Wild type, NADPH [1] [µmol/min/mg] | D-amino acid synthesis activity (specific activity), Three-mutation enzyme, NADH [2] [µmol/min/mg] | D-amino acid synthesis activity (specific activity), Three-mutation enzyme, NADPH [2] [µmol/min/mg] | D-amino acid synthesis activity (specific activity), Five-mutation enzyme, NADH [3] [µmol/min/mg] | D-amino acid synthesis activity (specific activity), Five-mutation enzyme, NADPH [3] [µmol/min/mg] | D-amino acid synthesis activity (specific activity), Six-mutation enzyme, NADH [4] | D-amino acid synthesis activity (specific activity), Six-mutation enzyme, NADPH [4] [µmol/min/mg]
1 | CC(C)C(=O)C(=O)O [2-oxo-3-methylbutanoic acid] | 0.0012 µmol/min/mg | 0.26 | 0.043 | 2.5 | 0.018 | 2.4 | No | 0.051
2 | CCC(C)C(=O)C(=O)O (stereo not shown) [2-oxo-3-methylpentanoic acid] | No | 0.18 | 0.043 | 4.7 | 0.025 | 4.0 | 0.0030 µmol/min/mg | 0.23
3 | O=C(O)C(=O)Cc1ccccc1 [2-oxo-3-phenylpropanoic acid] | 0.011 µmol/min/mg | 1.5 | 0.028 | 1.5 | 0.012 | 2.7 | 0.018 µmol/min/mg | 2.1
4 | CSCCC(=O)C(=O)O [2-oxo-4-(methylthio)butanoic acid] | No | 2.0 | 0.013 | 5.2 | 0.069 | 12.3 | 0.024 µmol/min/mg | 2.8
5 | CC(C)CC(=O)C(=O)O [2-oxo-4-methylpentanoic acid] | No | 0.803 | 0.044 | 4.6 | 0.055 | 9.0 | 0.011 µmol/min/mg | 1.2
